According to ChEMBL document CHEMBL5465560, “Selectivity Literature for EUbOPEN Chemogenomic Library” (2024):

Columns and labels:
[1] = target: T1, Mitogen-activated protein kinase 13 (Homo sapiens) (UniProt O15264); test: Selectivity interaction (KinomeScan (DiscoverX)) EUB0000229b MAPK13; details: at 10 µM
T1 sequence (whole entry): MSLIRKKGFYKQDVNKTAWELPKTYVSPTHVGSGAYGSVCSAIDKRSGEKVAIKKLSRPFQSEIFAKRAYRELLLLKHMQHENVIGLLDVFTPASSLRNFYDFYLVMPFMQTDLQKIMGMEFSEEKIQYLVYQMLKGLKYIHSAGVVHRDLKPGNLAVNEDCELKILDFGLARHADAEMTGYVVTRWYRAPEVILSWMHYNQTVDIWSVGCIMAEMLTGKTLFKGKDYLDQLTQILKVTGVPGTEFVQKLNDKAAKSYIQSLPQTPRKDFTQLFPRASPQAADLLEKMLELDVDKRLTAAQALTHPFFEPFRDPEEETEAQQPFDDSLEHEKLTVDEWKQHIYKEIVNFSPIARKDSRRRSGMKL

[2] = target: T2, Phosphatidylinositol 5-phosphate 4-kinase type-2 beta (Homo sapiens) (UniProt P78356); test: Selectivity interaction (KinomeScan (DiscoverX)) EUB0000229b PIP4K2B; details: at 10 µM
T2 sequence (whole entry): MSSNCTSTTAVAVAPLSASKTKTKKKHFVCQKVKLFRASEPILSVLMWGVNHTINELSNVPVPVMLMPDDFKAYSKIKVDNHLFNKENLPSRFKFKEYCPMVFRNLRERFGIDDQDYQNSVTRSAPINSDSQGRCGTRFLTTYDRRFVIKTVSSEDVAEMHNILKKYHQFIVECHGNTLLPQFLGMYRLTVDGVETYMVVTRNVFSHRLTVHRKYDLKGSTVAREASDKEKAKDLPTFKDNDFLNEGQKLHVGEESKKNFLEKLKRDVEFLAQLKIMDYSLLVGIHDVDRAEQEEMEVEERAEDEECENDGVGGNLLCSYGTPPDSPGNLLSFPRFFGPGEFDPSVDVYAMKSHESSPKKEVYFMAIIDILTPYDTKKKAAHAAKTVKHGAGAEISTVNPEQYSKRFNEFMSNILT

[3] = target: Serine/threonine-protein kinase Chk2 (Homo sapiens) (UniProt O96017); test: Selectivity interaction (Kinase panel (DSF assay)) EUB0001558a CHEK2
Chain of Serine/threonine-protein kinase Chk2 (Homo sapiens) (O96017 whole entry): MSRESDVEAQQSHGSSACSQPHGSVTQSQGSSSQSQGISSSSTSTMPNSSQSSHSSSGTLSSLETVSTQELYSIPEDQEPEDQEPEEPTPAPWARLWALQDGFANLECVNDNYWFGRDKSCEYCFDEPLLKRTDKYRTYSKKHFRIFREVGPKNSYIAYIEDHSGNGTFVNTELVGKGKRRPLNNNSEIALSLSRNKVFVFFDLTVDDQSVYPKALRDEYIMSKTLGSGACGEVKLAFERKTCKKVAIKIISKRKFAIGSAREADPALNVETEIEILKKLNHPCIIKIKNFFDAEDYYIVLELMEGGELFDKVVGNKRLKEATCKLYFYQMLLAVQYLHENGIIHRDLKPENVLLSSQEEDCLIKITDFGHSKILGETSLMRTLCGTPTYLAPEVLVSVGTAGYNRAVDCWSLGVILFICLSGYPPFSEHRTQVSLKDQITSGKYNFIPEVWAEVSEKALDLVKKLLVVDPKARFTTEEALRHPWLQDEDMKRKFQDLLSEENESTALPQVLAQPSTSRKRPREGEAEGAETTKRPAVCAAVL

[4] = target: T3, Ephrin type-B receptor 1 (Homo sapiens) (UniProt P54762); test: Selectivity interaction (KinomeScan (DiscoverX)) EUB0000618a EPHB1; details: at 10 µM
T3 sequence (whole entry): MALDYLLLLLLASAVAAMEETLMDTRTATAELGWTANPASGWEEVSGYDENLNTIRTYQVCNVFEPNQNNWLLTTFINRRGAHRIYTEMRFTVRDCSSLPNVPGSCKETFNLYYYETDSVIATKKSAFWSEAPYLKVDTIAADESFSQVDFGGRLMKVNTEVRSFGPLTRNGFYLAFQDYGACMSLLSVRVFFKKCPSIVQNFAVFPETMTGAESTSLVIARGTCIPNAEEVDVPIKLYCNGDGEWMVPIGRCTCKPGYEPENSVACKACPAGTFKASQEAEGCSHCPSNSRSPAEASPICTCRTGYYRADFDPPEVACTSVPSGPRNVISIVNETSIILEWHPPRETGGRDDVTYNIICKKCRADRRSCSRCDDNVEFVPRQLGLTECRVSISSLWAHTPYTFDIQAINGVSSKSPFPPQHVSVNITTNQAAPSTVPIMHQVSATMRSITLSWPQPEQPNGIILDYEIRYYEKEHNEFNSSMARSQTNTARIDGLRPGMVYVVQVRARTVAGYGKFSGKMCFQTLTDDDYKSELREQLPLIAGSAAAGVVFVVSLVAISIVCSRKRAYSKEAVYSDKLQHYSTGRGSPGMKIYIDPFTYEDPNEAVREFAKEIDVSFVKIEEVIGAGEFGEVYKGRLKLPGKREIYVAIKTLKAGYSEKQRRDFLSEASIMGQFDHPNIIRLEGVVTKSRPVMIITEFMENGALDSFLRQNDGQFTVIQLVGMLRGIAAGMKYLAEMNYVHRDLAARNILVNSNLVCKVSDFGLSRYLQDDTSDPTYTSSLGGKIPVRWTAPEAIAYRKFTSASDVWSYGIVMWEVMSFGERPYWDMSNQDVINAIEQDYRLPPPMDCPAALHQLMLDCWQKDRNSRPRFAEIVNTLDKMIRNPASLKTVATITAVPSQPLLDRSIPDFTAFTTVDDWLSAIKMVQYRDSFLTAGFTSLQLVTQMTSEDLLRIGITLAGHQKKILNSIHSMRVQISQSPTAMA

[5] = target: T4, Serine/threonine-protein kinase D3 (Homo sapiens) (UniProt O94806); test: Selectivity interaction (ActivX KiNativ screen (kinase selectivity in THP-1 cell lysates)) EUB0000639a PRKD3; type: subcellular; details: lysate
T4 sequence (whole entry): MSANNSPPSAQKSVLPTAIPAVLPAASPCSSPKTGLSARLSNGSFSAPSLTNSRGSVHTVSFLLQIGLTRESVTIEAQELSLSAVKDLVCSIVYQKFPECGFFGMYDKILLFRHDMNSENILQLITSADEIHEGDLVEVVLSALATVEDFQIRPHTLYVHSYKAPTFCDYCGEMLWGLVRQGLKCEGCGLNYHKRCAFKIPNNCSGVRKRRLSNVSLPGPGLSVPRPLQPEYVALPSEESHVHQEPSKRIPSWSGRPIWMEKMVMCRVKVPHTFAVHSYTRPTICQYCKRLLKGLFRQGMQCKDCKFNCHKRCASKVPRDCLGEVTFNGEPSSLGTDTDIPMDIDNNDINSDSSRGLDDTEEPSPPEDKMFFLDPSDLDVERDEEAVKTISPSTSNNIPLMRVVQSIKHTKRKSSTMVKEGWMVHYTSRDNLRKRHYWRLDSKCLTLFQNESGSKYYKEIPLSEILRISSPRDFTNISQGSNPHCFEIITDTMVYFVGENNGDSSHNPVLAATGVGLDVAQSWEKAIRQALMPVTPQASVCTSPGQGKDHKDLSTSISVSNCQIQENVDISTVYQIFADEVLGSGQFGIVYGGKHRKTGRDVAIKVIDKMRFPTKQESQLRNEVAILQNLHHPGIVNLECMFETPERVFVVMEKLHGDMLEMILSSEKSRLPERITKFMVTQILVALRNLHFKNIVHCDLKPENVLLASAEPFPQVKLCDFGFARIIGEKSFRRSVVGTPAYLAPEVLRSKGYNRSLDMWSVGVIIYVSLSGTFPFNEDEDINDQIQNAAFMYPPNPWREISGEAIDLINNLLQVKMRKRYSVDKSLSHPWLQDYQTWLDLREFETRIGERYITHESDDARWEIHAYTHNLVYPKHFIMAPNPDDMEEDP

[6] = target: Serine/threonine-protein kinase N1 (Homo sapiens, UniProt Q16512); test: Selectivity interaction (Ambit KINOMEscan and KiNATiv profiling in Jurkat cells) EUB0000090b PKN1; type: cell-based; details: at 1 µM
Chain of Serine/threonine-protein kinase N1 (Q16512 2-942 limits assumed): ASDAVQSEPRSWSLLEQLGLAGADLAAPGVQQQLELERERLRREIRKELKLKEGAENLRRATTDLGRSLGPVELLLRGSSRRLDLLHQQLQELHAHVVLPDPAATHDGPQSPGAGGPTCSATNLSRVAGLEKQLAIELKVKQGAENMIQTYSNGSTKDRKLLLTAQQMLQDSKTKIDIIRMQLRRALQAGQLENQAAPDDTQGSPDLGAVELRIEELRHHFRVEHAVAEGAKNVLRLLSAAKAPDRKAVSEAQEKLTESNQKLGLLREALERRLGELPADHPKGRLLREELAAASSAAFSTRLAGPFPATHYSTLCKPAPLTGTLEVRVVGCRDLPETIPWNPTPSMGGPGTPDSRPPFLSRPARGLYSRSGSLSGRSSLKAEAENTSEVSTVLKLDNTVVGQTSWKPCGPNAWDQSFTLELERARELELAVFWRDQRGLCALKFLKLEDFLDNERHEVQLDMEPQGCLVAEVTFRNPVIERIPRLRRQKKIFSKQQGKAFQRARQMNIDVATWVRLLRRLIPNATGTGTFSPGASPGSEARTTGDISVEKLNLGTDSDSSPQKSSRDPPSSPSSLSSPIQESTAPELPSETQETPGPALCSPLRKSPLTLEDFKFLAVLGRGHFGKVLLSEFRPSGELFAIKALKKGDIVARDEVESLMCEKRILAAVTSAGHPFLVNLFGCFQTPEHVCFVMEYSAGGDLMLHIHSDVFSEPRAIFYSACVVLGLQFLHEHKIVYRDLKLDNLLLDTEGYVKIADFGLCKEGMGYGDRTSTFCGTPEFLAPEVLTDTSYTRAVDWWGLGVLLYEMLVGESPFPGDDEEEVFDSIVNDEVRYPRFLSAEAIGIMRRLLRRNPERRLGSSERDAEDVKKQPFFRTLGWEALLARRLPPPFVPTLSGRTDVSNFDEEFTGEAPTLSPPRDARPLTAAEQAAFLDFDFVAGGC

## COc1cc(N(C)c2ccnc3ccc(C(F)(F)F)cc23)cc(OC)c1OC
[1]
  % binding: 78%
[2]
  % binding: 100%

## CC(C)(O)[C@H](F)CN1Cc2cc(NC(=O)c3cnn4cccnc34)c(N3CCOCC3)cc2C1=O
[3]
  dTM: 1.5 K

## O[C@H]1CC[C@H](Nc2ncc3nc(Nc4c(F)cc(F)cc4F)n([C@H]4CCOC4)c3n2)CC1
[4]
  % of control: 96%

## CC[C@@H]1[C@H](F)C(=O)N[C@@H]1COc1nccc2cc(C(N)=O)c(OC)cc12 [ZIMLOVISERTIB]
[5]; at 0.01 µM
  % of inhibition: -8.3%
[5]; at 0.04 µM
  % of inhibition: -5.9%
[5]; at 0.2 µM
  % of inhibition: -13.7%
[5]; at 1 µM
  % of inhibition: 3.6%
[5]; at 5 µM
  % of inhibition: -22.1%

## CN(C)C/C=C/C(=O)Nc1ccc(C(=O)N2CCCC(Nc3ncc(Cl)c(-c4c[nH]c5ccccc45)n3)C2)cc1 (stereo not given)
[6]
  % of control: 94%
